What was measured:
Format in all cases: functional, organism-based
Details in all cases: Canis lupus familiaris; tested as the 125I-labelled form
[1] = organism: Canis familiaris; assay: Compound was tested for uptake in thrombus in the canine arteriovenous shunt model in arterial rich condition.
[2] = organism: Canis familiaris; assay: Compound was tested for uptake in thrombus in the canine arteriovenous shunt model in venous rich condition.
[3] = organism: Canis familiaris; assay: Thrombus and blood ratio was determined in the canine arteriovenous shunt model in arterial rich condition.
[4] = organism: Canis familiaris; assay: Thrombus and blood ratio was determined in the canine arteriovenous shunt model in venous rich condition.

| Structure (SMILES) | ID/g [1] | ID/g [2] | Uptake ratio [3] | Uptake ratio [4] |
| --- | --- | --- | --- | --- |
| CN1C(=O)[C@@H](Cc2ccc(O)c(I)c2)NC(=O)c2cccc(c2)CNC(=O)[C@H](CC(=O)O)NC(=O)CNC(=O)[C@@H]1CCCN=C(N)N | 1.81% | 0.25% | 173 | 19.3 |
| CN1C(=O)[C@@H](CCCCNC(=O)CCc2ccc(O)c(I)c2)NC(=O)c2cccc(c2)CNC(=O)[C@H](CC(=O)O)NC(=O)CNC(=O)[C@@H]1CCCN=C(N)N | 2.6% | 0.45% | 43.9 | 7.82 |
